# Measurements taken from publication PMC5078040 (Oncotarget, 2016).
# What was measured:
# PI3Kδ [1] = target: T1, PI3Kδ (Homo sapiens, UniProt O00329); experiment: ADP-glo biochemical assay; conditions: purified enzyme, read-out: biochemical IC50 PI3K Delta
# Method: The reaction in each tube was started immediately by adding ATP and kept going for an hour under 37°C. After the tube cooled for 5 minutes at room temperature, 5 μL solvent reactions were carried out in a 384-well plate. Then 5 μL of ADP-Glo™ reagent was added into each well to stop the reaction and consume the remaining ADP within 40 minutes. At the end, 10 μL of kinase detection reagent was added into the well and incubated for 30 minutes to produce a luminescence signal. Luminescence signal was measured with an automated plate reader (Perkin-Elmer Envision) and each measurement was performed in triplicate.
# [2] = target: T2, ABL1(F317I)-nonphosphorylated (Homo sapiens, UniProt P00519, F317I); experiment: KinomeScan; format: binding; conditions: 1uM
# T2 construct: purchased DiscoveRx KINOMEscan
# BRSK2 = target: T3, BRSK2 (Homo sapiens, UniProt Q8IWQ3); experiment: KinomeScan; format: binding; conditions: 1uM
# T3 construct: purchased DiscoveRx KINOMEscan
# CAMKK1 = target: T4, CAMKK1 (Homo sapiens, UniProt Q8N5S9); experiment: KinomeScan; format: binding; conditions: 1uM
# T4 construct: purchased DiscoveRx KINOMEscan
# CDK7 = target: T5, CDK7 (Homo sapiens, UniProt P50613); experiment: KinomeScan; format: binding; conditions: 1uM
# T5 construct: purchased DiscoveRx KINOMEscan
# CDKL2 = target: T6, CDKL2 (Homo sapiens, UniProt Q92772); experiment: KinomeScan; format: binding; conditions: 1uM
# T6 construct: purchased DiscoveRx KINOMEscan
# CLK1 = target: T7, CLK1 (Homo sapiens, UniProt P49759); experiment: KinomeScan; format: binding; conditions: 1uM
# T7 construct: purchased DiscoveRx KINOMEscan
# CLK4 = target: T8, CLK4 (Homo sapiens, UniProt Q9HAZ1); experiment: KinomeScan; format: binding; conditions: 1uM
# T8 construct: purchased DiscoveRx KINOMEscan
# T8 sequence (Q9HAZ1 whole entry): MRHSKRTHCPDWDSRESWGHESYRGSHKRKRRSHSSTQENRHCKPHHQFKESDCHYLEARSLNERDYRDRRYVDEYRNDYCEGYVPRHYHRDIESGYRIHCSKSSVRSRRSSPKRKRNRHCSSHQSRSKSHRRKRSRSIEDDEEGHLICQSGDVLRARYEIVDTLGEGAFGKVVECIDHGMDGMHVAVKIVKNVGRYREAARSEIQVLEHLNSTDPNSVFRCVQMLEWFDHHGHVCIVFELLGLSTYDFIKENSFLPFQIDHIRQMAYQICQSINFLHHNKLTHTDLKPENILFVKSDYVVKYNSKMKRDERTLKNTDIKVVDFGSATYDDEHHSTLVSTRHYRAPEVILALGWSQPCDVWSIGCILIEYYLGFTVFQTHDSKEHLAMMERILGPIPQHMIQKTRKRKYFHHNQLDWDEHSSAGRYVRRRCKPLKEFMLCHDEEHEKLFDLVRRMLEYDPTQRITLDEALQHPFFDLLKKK
# CSK = target: T9, CSK (Homo sapiens, UniProt P41240); experiment: KinomeScan; format: binding; conditions: 1uM
# T9 construct: purchased DiscoveRx KINOMEscan
# EIF2AK1 = target: T10, EIF2AK1 (Homo sapiens, UniProt Q9BQI3); experiment: KinomeScan; format: binding; conditions: 1uM
# T10 construct: purchased DiscoveRx KINOMEscan
# T10 sequence (Q9BQI3 whole entry): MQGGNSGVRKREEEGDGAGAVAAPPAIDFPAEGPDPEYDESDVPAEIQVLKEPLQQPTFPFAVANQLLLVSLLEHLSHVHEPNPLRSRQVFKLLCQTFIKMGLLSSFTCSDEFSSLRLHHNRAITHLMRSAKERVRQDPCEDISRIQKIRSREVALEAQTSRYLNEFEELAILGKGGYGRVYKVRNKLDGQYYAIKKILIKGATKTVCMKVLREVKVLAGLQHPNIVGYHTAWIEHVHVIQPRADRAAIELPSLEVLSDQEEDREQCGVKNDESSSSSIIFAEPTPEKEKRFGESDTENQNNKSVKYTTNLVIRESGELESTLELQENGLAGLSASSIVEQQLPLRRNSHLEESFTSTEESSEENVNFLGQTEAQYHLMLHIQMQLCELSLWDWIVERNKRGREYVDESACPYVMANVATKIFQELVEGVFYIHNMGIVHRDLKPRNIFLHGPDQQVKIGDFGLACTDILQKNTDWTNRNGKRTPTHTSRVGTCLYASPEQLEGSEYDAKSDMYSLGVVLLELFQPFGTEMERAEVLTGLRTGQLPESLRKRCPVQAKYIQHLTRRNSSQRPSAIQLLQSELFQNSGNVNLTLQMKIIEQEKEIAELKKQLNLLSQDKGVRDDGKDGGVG
# ERK8 = target: T11, ERK8 (Homo sapiens, UniProt Q8TD08); experiment: KinomeScan; format: binding; conditions: 1uM
# T11 construct: purchased DiscoveRx KINOMEscan
# FGFR3(G697C) = target: T12, FGFR3(G697C) (Homo sapiens, UniProt P22607, G697C); experiment: KinomeScan; format: binding; conditions: 1uM
# T12 construct: purchased DiscoveRx KINOMEscan
# FLT3(D835H) = target: T13, FLT3(D835H) (Homo sapiens, UniProt P36888, D835H); experiment: KinomeScan; format: binding; conditions: 1uM
# T13 construct: purchased DiscoveRx KINOMEscan
# GRK1 = target: T14, GRK1 (Homo sapiens, UniProt Q15835); experiment: KinomeScan; format: binding; conditions: 1uM
# T14 construct: purchased DiscoveRx KINOMEscan
# HIPK1 = target: T15, HIPK1 (Homo sapiens, UniProt Q86Z02); experiment: KinomeScan; format: binding; conditions: 1uM
# T15 construct: purchased DiscoveRx KINOMEscan
# INSR = target: T16, INSR (Homo sapiens, UniProt P06213); experiment: KinomeScan; format: binding; conditions: 1uM
# T16 construct: purchased DiscoveRx KINOMEscan
# KIT(V559D) = target: T17, KIT(V559D) (Homo sapiens, UniProt P10721, V559D); experiment: KinomeScan; format: binding; conditions: 1uM
# T17 construct: purchased DiscoveRx KINOMEscan
# LIMK2 = target: T18, LIMK2 (Homo sapiens, UniProt P53671); experiment: KinomeScan; format: binding; conditions: 1uM
# T18 construct: purchased DiscoveRx KINOMEscan
# MARK2 = target: T19, MARK2 (Homo sapiens, UniProt Q7KZI7); experiment: KinomeScan; format: binding; conditions: 1uM
# T19 construct: purchased DiscoveRx KINOMEscan
# MARK4 = target: T20, MARK4 (Homo sapiens, UniProt Q96L34); experiment: KinomeScan; format: binding; conditions: 1uM
# T20 construct: purchased DiscoveRx KINOMEscan
# MEK5 = target: T21, MEK5 (Homo sapiens, UniProt Q13163); experiment: KinomeScan; format: binding; conditions: 1uM
# T21 construct: purchased DiscoveRx KINOMEscan
# MET(Y1235D) = target: T22, MET(Y1235D) (Homo sapiens, UniProt P08581, Y1235D); experiment: KinomeScan; format: binding; conditions: 1uM
# T22 construct: purchased DiscoveRx KINOMEscan
# T22 sequence (P08581 25-1390 Y1235D): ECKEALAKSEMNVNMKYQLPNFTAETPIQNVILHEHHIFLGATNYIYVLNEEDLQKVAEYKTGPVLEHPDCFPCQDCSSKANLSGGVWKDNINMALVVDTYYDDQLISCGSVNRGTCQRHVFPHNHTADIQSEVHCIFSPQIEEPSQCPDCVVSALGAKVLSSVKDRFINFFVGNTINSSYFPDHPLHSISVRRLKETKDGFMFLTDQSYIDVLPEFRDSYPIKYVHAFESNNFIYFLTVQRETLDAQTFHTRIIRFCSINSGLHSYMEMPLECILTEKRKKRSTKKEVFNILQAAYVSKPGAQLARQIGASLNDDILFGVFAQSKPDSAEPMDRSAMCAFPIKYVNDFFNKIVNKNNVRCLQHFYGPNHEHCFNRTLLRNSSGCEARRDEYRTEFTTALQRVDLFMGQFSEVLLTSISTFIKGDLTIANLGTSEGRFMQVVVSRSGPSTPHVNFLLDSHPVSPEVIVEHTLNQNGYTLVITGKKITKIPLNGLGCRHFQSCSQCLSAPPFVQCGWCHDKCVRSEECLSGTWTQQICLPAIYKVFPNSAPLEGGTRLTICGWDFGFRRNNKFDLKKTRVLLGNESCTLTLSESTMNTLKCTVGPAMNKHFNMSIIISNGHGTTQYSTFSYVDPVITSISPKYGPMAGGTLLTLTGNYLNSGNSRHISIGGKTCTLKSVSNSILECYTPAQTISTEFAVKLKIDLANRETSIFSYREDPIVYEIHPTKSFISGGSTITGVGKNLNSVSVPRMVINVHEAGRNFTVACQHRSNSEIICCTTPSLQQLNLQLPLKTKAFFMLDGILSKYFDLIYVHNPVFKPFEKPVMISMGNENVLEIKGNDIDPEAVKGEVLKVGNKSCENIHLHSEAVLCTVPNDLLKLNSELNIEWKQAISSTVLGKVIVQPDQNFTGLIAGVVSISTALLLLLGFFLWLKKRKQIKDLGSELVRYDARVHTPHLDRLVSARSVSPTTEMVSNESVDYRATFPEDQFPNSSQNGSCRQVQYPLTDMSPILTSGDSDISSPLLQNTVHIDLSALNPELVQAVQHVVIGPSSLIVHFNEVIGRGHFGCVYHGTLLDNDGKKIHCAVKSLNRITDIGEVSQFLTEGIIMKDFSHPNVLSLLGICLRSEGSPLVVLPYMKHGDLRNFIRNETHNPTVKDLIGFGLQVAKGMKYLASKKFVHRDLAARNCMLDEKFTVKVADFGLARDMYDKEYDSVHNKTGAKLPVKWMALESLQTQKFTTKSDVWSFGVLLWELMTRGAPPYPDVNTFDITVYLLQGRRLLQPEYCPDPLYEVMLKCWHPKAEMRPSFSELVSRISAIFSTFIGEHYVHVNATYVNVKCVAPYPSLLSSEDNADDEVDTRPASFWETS
# MLK3 = target: T23, MLK3 (Homo sapiens, UniProt Q16584); experiment: KinomeScan; format: binding; conditions: 1uM
# T23 construct: purchased DiscoveRx KINOMEscan
# MST4 = target: T24, MST4 (Homo sapiens, UniProt Q9P289); experiment: KinomeScan; format: binding; conditions: 1uM
# T24 construct: purchased DiscoveRx KINOMEscan
# MTOR = target: T25, MTOR (Homo sapiens, UniProt P42345); experiment: KinomeScan; format: binding; conditions: 1uM
# T25 construct: purchased DiscoveRx KINOMEscan
# NEK6 = target: T26, NEK6 (Homo sapiens, UniProt Q9HC98); experiment: KinomeScan; format: binding; conditions: 1uM
# T26 construct: purchased DiscoveRx KINOMEscan
# PFPK5(P.falciparum) = target: T27, PFPK5(P.falciparum) (Plasmodium falciparum, UniProt P61075); experiment: KinomeScan; format: binding; conditions: 1uM
# T27 construct: purchased DiscoveRx KINOMEscan
# PIK3CA(H1047L) = target: T28, PIK3CA(H1047L) (Homo sapiens, UniProt P42336, H1047L); experiment: KinomeScan; format: binding; conditions: 1uM
# T28 construct: purchased DiscoveRx KINOMEscan
# PIK3CD = target: T29, PIK3CD (Homo sapiens, UniProt O00329); experiment: KinomeScan; format: binding; conditions: 1uM
# T29 construct: purchased DiscoveRx KINOMEscan
# T29 sequence (O00329 whole entry): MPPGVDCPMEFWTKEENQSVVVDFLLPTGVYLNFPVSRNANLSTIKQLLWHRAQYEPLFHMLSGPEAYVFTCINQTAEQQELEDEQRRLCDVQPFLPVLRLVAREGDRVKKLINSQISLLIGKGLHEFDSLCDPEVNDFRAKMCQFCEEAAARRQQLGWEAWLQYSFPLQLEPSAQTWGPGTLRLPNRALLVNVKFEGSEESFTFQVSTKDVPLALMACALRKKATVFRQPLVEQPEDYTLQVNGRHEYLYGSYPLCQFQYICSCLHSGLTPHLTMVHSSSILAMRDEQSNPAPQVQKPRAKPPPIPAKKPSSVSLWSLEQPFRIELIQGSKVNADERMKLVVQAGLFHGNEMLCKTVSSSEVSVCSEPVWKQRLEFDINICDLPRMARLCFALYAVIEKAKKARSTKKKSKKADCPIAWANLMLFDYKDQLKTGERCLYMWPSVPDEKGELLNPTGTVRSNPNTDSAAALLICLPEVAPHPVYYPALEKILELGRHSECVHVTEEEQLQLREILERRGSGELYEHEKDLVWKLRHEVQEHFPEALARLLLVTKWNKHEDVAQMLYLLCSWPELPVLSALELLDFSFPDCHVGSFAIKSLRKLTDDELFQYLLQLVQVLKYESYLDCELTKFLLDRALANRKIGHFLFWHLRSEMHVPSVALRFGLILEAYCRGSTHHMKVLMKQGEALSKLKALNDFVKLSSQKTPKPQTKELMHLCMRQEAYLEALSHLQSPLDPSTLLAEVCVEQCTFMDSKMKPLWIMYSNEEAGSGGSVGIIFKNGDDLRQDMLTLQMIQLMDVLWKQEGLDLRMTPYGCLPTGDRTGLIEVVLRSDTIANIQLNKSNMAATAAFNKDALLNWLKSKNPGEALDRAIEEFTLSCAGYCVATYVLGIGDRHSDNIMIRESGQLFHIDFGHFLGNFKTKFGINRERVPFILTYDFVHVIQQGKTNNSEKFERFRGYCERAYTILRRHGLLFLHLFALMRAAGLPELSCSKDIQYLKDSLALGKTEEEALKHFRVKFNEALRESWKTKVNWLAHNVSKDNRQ
# PIM2 = target: T30, PIM2 (Homo sapiens, UniProt Q9P1W9); experiment: KinomeScan; format: binding; conditions: 1uM
# T30 construct: purchased DiscoveRx KINOMEscan
# PRKCI = target: T31, PRKCI (Homo sapiens, UniProt P41743); experiment: KinomeScan; format: binding; conditions: 1uM
# T31 construct: purchased DiscoveRx KINOMEscan
# RET(V804M) = target: T32, RET(V804M) (Homo sapiens, UniProt P07949, V804M); experiment: KinomeScan; format: binding; conditions: 1uM
# T32 construct: purchased DiscoveRx KINOMEscan
# RIOK2 = target: T33, RIOK2 (Homo sapiens, UniProt Q9BVS4); experiment: KinomeScan; format: binding; conditions: 1uM
# T33 construct: purchased DiscoveRx KINOMEscan
# ROCK2 = target: T34, ROCK2 (Homo sapiens, UniProt O75116); experiment: KinomeScan; format: binding; conditions: 1uM
# T34 construct: purchased DiscoveRx KINOMEscan
# SLK = target: T35, SLK (Homo sapiens, UniProt Q9H2G2); experiment: KinomeScan; format: binding; conditions: 1uM
# T35 construct: purchased DiscoveRx KINOMEscan
# SRC = target: T36, SRC (Homo sapiens, UniProt P12931); experiment: KinomeScan; format: binding; conditions: 1uM
# T36 construct: purchased DiscoveRx KINOMEscan
# TESK1 = target: T37, TESK1 (Homo sapiens, UniProt Q15569); experiment: KinomeScan; format: binding; conditions: 1uM
# T37 construct: purchased DiscoveRx KINOMEscan
# TTK = target: T38, TTK (Homo sapiens, UniProt P33981); experiment: KinomeScan; format: binding; conditions: 1uM
# T38 construct: purchased DiscoveRx KINOMEscan
# ULK1 = target: T39, ULK1 (Homo sapiens, UniProt O75385); experiment: KinomeScan; format: binding; conditions: 1uM
# T39 construct: purchased DiscoveRx KINOMEscan
# WEE2 = target: T40, WEE2 (Homo sapiens, UniProt P0C1S8); experiment: KinomeScan; format: binding; conditions: 1uM
# T40 construct: purchased DiscoveRx KINOMEscan
# T40 sequence (P0C1S8 whole entry): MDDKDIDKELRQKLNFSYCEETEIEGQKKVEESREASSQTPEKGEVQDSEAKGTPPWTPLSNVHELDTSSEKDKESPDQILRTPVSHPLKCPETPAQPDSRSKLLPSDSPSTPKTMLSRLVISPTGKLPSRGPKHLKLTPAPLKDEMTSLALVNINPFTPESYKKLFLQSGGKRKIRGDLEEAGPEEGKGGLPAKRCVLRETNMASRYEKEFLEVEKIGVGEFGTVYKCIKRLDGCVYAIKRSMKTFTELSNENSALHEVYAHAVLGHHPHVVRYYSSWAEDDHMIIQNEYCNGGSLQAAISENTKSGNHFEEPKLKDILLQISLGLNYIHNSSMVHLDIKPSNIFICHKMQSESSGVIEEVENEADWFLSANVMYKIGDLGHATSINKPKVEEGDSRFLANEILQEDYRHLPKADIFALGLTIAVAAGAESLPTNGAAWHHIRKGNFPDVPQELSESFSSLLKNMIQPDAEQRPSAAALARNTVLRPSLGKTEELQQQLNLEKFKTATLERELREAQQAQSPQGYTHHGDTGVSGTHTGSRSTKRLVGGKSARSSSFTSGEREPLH
# WNK1 = target: T41, WNK1 (Homo sapiens, UniProt Q9H4A3); experiment: KinomeScan; format: binding; conditions: 1uM
# T41 construct: purchased DiscoveRx KINOMEscan
# PI3Kδ [3] = target: T1, PI3Kδ; experiment: PI3Ks isoform in cell EC50 assay (AKT phosphorylation, Western Blotting); format: cell-based; design: endogenous in cells; host or cells: Raji; conditions: Raji cells, 1μg/ml anti-IgM, Akt phosphorylation at T308; read-out: cellular EC50 PI3K Delta
# T1 sequence (O00329 whole entry): as the sequence (O00329 whole entry) above
# T1 sequence (P27986 whole entry partner): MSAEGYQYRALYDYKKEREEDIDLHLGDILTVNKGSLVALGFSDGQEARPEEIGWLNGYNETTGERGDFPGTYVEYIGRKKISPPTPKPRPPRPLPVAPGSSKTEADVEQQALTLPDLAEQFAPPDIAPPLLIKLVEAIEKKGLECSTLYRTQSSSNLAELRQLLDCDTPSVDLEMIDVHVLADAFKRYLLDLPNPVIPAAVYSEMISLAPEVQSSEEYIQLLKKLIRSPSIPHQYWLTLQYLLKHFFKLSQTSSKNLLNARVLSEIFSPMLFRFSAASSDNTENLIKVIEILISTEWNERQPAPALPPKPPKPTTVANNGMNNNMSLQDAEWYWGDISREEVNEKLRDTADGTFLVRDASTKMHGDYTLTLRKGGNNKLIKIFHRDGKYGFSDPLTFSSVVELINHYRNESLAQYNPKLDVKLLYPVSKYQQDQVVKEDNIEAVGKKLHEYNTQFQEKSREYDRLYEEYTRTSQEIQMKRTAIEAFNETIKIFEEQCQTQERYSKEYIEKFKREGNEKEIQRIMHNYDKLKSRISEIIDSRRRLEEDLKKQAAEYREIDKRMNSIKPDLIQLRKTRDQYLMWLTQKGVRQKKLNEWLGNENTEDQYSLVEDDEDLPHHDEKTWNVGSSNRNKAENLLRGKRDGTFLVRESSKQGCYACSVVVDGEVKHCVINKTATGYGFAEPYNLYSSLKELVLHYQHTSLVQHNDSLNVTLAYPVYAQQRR
compound,measurement,setting,value
Cc1nc(NC(=O)[C@@H](N)C(C)C)sc1-c1cnc(Cl)c(NS(=O)(=O)c2ccccc2)c1 [PI3KD-IN-015],IC50,PI3Kδ [1],5 nM
same,KinomeScan ABL1(F317I)-nonphosphorylated,[2],100
same,KinomeScan BRSK2,BRSK2,100
same,KinomeScan CAMKK1,CAMKK1,100
same,KinomeScan CDK7,CDK7,100
same,KinomeScan CDKL2,CDKL2,100
same,KinomeScan CLK1,CLK1,100
same,KinomeScan CLK4,CLK4,100
same,KinomeScan CSK,CSK,90
same,KinomeScan EIF2AK1,EIF2AK1,100
same,KinomeScan ERK8,ERK8,98
same,KinomeScan FGFR3(G697C),FGFR3(G697C),100
same,KinomeScan FLT3(D835H),FLT3(D835H),94
same,KinomeScan GRK1,GRK1,99
same,KinomeScan HIPK1,HIPK1,96
same,KinomeScan INSR,INSR,74
same,KinomeScan KIT(V559D),KIT(V559D),87
same,KinomeScan LIMK2,LIMK2,100
same,KinomeScan MARK2,MARK2,95
same,KinomeScan MARK4,MARK4,100
same,KinomeScan MEK5,MEK5,94
same,KinomeScan MET(Y1235D),MET(Y1235D),100
same,KinomeScan MLK3,MLK3,100
same,KinomeScan MST4,MST4,86
same,KinomeScan MTOR,MTOR,28
same,KinomeScan NEK6,NEK6,100
same,KinomeScan PFPK5(P.falciparum),PFPK5(P.falciparum),100
same,KinomeScan PIK3CA(H1047L),PIK3CA(H1047L),0
same,KinomeScan PIK3CD,PIK3CD,0
same,KinomeScan PIM2,PIM2,72
same,KinomeScan PRKCI,PRKCI,100
same,KinomeScan RET(V804M),RET(V804M),100
same,KinomeScan RIOK2,RIOK2,72
same,KinomeScan ROCK2,ROCK2,85
same,KinomeScan SLK,SLK,100
same,KinomeScan SRC,SRC,91
same,KinomeScan TESK1,TESK1,100
same,KinomeScan TTK,TTK,96
same,KinomeScan ULK1,ULK1,74
same,KinomeScan WEE2,WEE2,100
same,KinomeScan WNK1,WNK1,100
same,EC50,PI3Kδ [3],13 nM
